# Measurements as given in US7838553B2, “Benzopyran derivatives as potassium channel openers” (Janssen Pharmaceutica NV, priority 2005, dated 2010).
# Target: T1, KATP channels (Homo sapiens, UniProt O60706+Q14654)
# T1 construct: TE671 human medulloblastoma cells were obtained from ATCC; host or cells: TE671 human medulloblastoma cells
# Test: Potassium Channel Assay (FLIPR membrane potential)
# Type: cell-based
# Conditions: TE671 human medulloblastoma cells, Membrane Potential Assay Dye, room temperature, hyperpolarization from KATP channel opening
# Protocol: TE671 human medulloblastoma cells were obtained from ATCC and grown in Dulbecco's modified Eagle's medium (DMEM) supplemented with 10% fetal bovine serum, 100 U/ml penicillin and […].
# The day before testing, the cells were plated in black 96-well plates at 50 K/well. On the day of testing, the growth media was removed, then 100 μl of FLIPR buffer (20 mM HEPES, 120 mM NaCl, 2 mM KCl, 2 mM CaCl2, 1 mM MgCl2, 5 mM Glucose) and 100 μl of Membrane Potential Assay Dye (Molecular Devices) dissolved in FLIPR buffer were added to each well. The cells were incubated at room temperature for 15 to 30 min.
# The effect of test compounds on KATP channels were evaluated on a fluorometric imaging plate reader (FLIPR, Molecular Devices) at room temperature. After a baseline period, 50 μl of 5× stock solution of test compound prepared in FLIPR buffer was added and fluorescent change was monitored for 3 minutes. After this reading, glyburide, a KATP channel blocker, was added to a final concentration of 5 μM to check the specificity of the test compound as a KATP channel openers. Hyperpolarization resulting from KATP channel opening was observed as a decrease in fluorescent intensity.
# Representative compounds of the present invention were tested according to the procedure described above, with results as listed in Table 7, below.
# T1 sequence (O60706 1-1549 isoform O60706-2): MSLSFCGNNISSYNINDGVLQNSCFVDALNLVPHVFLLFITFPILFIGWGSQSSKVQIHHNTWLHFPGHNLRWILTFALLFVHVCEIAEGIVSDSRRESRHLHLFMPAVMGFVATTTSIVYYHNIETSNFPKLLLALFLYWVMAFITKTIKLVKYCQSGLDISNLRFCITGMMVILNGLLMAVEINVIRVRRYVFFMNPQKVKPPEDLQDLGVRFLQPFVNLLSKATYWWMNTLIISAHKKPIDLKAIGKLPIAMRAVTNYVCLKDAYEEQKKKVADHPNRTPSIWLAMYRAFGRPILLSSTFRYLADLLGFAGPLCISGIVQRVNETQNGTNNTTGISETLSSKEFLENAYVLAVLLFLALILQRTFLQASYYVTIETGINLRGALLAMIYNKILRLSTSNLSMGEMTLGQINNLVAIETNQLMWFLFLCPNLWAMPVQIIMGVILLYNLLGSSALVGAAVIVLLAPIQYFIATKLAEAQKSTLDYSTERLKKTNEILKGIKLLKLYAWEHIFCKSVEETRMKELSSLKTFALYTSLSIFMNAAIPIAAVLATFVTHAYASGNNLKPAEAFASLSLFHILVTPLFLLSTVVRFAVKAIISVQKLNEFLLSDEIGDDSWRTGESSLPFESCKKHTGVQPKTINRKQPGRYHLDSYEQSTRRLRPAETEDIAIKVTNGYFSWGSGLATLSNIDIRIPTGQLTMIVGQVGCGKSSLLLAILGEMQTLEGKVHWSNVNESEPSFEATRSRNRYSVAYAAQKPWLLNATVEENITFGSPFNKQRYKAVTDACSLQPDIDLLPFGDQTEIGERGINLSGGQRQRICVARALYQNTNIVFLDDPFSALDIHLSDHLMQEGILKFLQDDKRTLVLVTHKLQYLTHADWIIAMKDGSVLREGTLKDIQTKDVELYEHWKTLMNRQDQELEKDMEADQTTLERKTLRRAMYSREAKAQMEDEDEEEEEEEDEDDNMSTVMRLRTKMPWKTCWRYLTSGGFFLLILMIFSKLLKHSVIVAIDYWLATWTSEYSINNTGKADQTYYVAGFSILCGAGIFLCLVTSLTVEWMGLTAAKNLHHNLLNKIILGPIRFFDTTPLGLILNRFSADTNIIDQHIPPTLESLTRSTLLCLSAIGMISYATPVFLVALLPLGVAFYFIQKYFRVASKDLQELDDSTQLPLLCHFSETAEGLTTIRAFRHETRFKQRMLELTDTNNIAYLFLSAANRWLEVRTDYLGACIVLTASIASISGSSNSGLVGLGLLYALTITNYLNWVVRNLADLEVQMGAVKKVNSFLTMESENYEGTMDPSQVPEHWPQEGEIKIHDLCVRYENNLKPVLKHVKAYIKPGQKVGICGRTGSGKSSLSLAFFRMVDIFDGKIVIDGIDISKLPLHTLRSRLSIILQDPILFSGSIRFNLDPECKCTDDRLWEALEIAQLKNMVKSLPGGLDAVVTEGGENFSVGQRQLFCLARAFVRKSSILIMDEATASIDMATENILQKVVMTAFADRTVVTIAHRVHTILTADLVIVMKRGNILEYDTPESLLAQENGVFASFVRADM
# T1 sequence (Q14654 whole entry): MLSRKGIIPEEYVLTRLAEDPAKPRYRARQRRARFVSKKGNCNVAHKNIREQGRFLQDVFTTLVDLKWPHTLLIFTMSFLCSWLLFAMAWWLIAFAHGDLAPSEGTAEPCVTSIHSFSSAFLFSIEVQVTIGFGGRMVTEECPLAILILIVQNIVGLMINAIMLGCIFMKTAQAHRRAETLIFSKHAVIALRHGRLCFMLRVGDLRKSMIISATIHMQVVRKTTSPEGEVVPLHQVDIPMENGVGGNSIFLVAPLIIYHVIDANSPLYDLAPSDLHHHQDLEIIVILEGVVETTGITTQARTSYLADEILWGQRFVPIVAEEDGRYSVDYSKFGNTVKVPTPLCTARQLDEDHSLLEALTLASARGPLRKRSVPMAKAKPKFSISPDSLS
row,EC50 [µM],Structure (SMILES)
1,0.84,"CC1(C)Oc2ccc(C#N)cc2[C@@H](Sc2ncc[nH]2)[C@@H]1O [Compound 25, (3S,4R)-3-Hydroxy-4-(2H-imidazol-2-ylsulfanyl)-2,2-dimethyl-chroman-6-carbonitrile]"
2,> 30,"CC1(C)Oc2ccc(S(=O)(=O)c3ccccc3)cc2[C@@H](Oc2noc3ccc(Cl)cc23)[C@@H]1O [Compound 75, (3S,4R)-6-Benzenesulfonyl-4R-(5-chloro-benzo[d]isoxazol-3-yloxy)-2,2-dimethyl-chroman-3S-ol]"
3,> 30,"CC1(C)Oc2ccncc2[C@@H](n2c(=O)ccn2-c2ccc(Cl)cc2)[C@@H]1O (racemic) [Compound 110, 1-(4-Chloro-phenyl)-2-(3-hydroxy-2,2-dimethyl-3,4-dihydro-2H-pyrano[32-c]pyridin-4-yl)-1,2-dihydro-pyrazol-3-one]"
